From paper PMC8597734 (Antimicrobial Agents and Chemotherapy, 2021)
≈ marks a conversion by molar mass, not a printed value. Read-outs that look alike come from different tables or passages of the source.

How the values were obtained:
[1] = tested on: M. tuberculosis H37Rv ATCC 27294; experiment: microbe, parasite or virus in culture; format: cell-based; details: Mycobacterium tuberculosis, 168 h
[2] = tested on: M. abscessus subsp. abscessus M9; experiment: microbe, parasite or virus in culture; format: cell-based, Mycobacterium abscessus; details: Mycobacteroides abscessus, 72 h
[3] = tested on: M. abscessus subsp. abscessus K21; experiment: microbe, parasite or virus in culture; format: cell-based, Mycobacterium abscessus; details: Mycobacteroides abscessus, 72 h
[4] = tested on: nutrient-starved, nonreplicating M. abscessus Bamboo; experiment: MBC determination under nutrient-starved conditions; format: cell-based, Mycobacterium abscessus; details: 48 h drug exposure
Method: The determination of drug bactericidal activity against nutrient-starved M. abscessus cultures was performed as previously described ([52]). […] Washed culture was then diluted with PBS/Tyloxapol to OD600 = 0.2 (1.8 × 10^7 CFU/ml). […] Appropriate concentrations of drugs up to 100 μM were added to the tubes prior to incubation at 37°C on a tilted rack in an orbital shaker at 220 rpm.

[5] = tested on: M. abscessus Bamboo RM4 (GyrA D91G); experiment: microbe, parasite or virus in culture; format: cell-based, Mycobacterium abscessus
ChromlogD assay = format: physicochemical; details: reversed phase HPLC column (Gemini NX C18)
Method: The Chromatographic Hydrophobicity Index (CHI) values are measured using reversed phase HPLC column (50 × 2 mm […] Gemini NX C18, Phenomenex, UK) with fast acetonitrile gradient at starting mobile phase of pHs 2, 7.4 and 10.5. CHI values are derived directly from the gradient retention times by using a calibration line obtained for standard compounds. The CHI value approximates to the volume % organic concentration when the compound elutes. CHI is linearly transformed into ChromlogD by least-square fitting of experimental CHI values to calculated ClogP values for over 20K research compounds using the following formula: ChromlogD = 0.0857CHI-2.00. The average error of the assay is ±3 CHI unit or ±0.25 ChromlogD.

[6] = Stability in microsomes (intrinsic clearance); format: in vitro ADME, mouse
Method: (§1) Intrinsic clearance (CLi) values were determined in mouse and human liver microsomes. Test compounds (final concentration 0.5 μM) were incubated at 37°C for 30 min in 50 mM potassium phosphate buffer (pH 7.4) containing 0.5 mg microsomal protein/ml. The reaction was started by addition of cofactor NADPH. At 10 different time points (from zero to 30 min) an aliquot (90 μl) was taken, quenched with acetonitrile-methanol containing an appropriate internal standard, centrifuged and analyzed by LC-MS/MS. The intrinsic clearance (CLi) was determined using the following equation: CLi=k*(ml of incubation/mg microsomal protein)*(mg microsomal protein/g liver)
(§2) Where k is the turn-over rate constant of the ln (% remaining compound) versus time regression and mg microsomal protein/g liver is 52.5 for both mouse and human.

[7] = Stability in microsomes (intrinsic clearance); format: in vitro ADME, human
Method: as §1, §2

[8] = Mouse oral pharmacokinetics; format: in vivo; details: for concentration at 24 h / AUC(0-t) / half-life: female; for concentration at 24 h: CD-1, mouse, below limit of quantitation (LOQ), read-out: plasma concentration at the 24h time point; for AUC(0-t) / half-life: mouse
Method: All animal studies were ethically reviewed and carried out in accordance with the Institutional Animal Care and Use Committee of Hackensack Meridian Health. Six-week-old CD-1 female mice (20–25 g) were used in pharmacokinetic studies. Groups of 3 mice received a single oral dose of EC/11716 formulated in 0.4% methylcellulose, at either 50, 200 or 400 mg/kg. Aliquots of 20 μl of blood were collected from the lateral tail vein by serial puncture from each mouse at 0.5, 1, 3, 5, 7 and 24h post dose in K2EDTA tubes. Plasma was recovered after centrifugation and stored at −80°C until analyzed by high pressure liquid chromatography coupled to tandem mass spectrometry.
Neat 1 mg/ml DMSO stocks of EC/11716 were serial diluted in 50/50 Acetonitrile water to create standard curves and quality control spiking solutions. Standards and QCs were created by adding 10μls of spiking solutions to 90μls of drug free plasma (CD-1 K2EDTA Mouse, Bioreclamation IVT). 10μls of control, standard, QC, or study sample were added to 100 μl of Acetonitrile/Methanol 50/50 protein precipitation solvent containing 10 ng/ml of the internal standard Verapamil (Sigma-Aldrich). Extracts were vortexed for 5 min and centrifuged at 4000 RPM for 5 min. 75 μl of supernatant was transferred for HPLC-MS/MS analysis and diluted with 75 μl of Milli-Q deionized water.
LC-MS/MS analysis was performed on a Sciex Applied Biosystems Qtrap 6500+ triple-quadrupole mass spectrometer coupled to a Shimadzu Nexera X2 UHPLC system to quantify each drug in plasma. Chromatography was performed on a Phenomenex Luna Omega column (2.1 × 100 mm; particle size, 3 μm) using a reverse phase gradient. Milli-Q deionized water with 0.1% formic acid was used for the aqueous mobile phase and 0.1% formic acid in acetonitrile for the organic mobile phase. Multiple-reaction monitoring of parent/daughter transitions in electrospray positive-ionization mode was used to quantify the analytes. The following MRM transitions were used for EC/11716 (458.09/203.10) and Verapamil (455.40/165.00). Sample analysis was accepted if the concentrations of the quality control samples were within 20% of the nominal concentration. Data processing was performed using Analyst software (version 1.6.2; Applied Biosystems Sciex).

[9] = mice, oral 400 mg/kg, from PK profiles and potency data

Compound: COc1cnc2ccc(=O)n(CCN3CCC(NCc4cnc(CO)c(Cl)c4)CC3)c2c1 [EC/11716]
- MIC [1]: 0.38 µM (≈ 0.174 µg/mL)
- MIC [2]: 2.9 µM (≈ 1.33 µg/mL)
- MIC [3]: 3 µM (≈ 1.37 µg/mL)
- MBC [4]: >100 µM
- MBC ([4]; Mycobacteroides abscessus): > 100 µM
- MIC [5]: >100 µM
- MIC ([5]; Mycobacteroides abscessus): > 100 µM
- chromatographic logD (ChromlogD assay; pH 7.4, read-out: ChromLogD pH 7.4): 1.73
- chromatographic logD (ChromlogD assay; read-out: LogD): 1.74
- Mouse In vitro CLint ([6]; mouse hepatic microsomes, free base form): 1.6 ml/min/g tissue
- mouse microsomal clearance ([6]; mouse microsomes): 1.6 ml/min/g protein
- Human In vitro CLint ([7]; human hepatic microsomes, free base form): < 0.3 ml/min/g tissue
- Human microsomal clearance ([7]; human microsomes): < 0.3 ml/min/g protein
- DNAUC[0-24]_50 mg/kg ([8]; CD-1 mice, oral 50 mg/kg, dose-normalized AUC, mean (SD)): 58 (16) ng*h/ml per mg/kg
- Tmax_50 mg/kg ([8]; CD-1 mice, oral 50 mg/kg, range of values): 30 to 60 min
- DNAUC[0-24]_200 mg/kg ([8]; CD-1 mice, oral 200 mg/kg, dose-normalized AUC, mean (SD)): 167 (24) ng*h/ml per mg/kg
- Tmax_200 mg/kg ([8]; CD-1 mice, oral 200 mg/kg, range of values): 0.5−1.0 h
- DNAUC[0-24]_400 mg/kg ([8]; CD-1 mice, oral 400 mg/kg, dose-normalized AUC, mean (SD)): 202 (8) ng*h/ml per mg/kg
- Tmax_400 mg/kg ([8]; CD-1 mice, oral 400 mg/kg, range of values): 30 to 60 min
- Cmax_50 mg/kg ([8]; CD-1 mice, single oral dose 50 mg/kg, plasma, mean (SD)): 632 (430) ng/ml
- Cmax_200 mg/kg ([8]; CD-1 mice, single oral dose 200 mg/kg, plasma, mean (SD)): 7,177 (618) ng/ml
- Cmax_400 mg/kg ([8]; CD-1 mice, single oral dose 400 mg/kg, plasma, mean (SD)): 16,767 (8,281) ng/ml
- concentration at 24 h ([8]; plasma, mice, oral 50 mg/kg): < 20 ng/mL
- concentration at 24 h ([8]; plasma, mice, oral 200 mg/kg): < 20 ng/mL
- AUC(0-t) ([8]; plasma, CD-1 mice, oral 50 mg/kg, mean (SD), read-out: AUC[0-24]_50 mg/kg): 2900 ng·h/mL
- half-life ([8]; plasma, CD-1 mice, oral 50 mg/kg, mean (SD), read-out: Elimination T1/2 _50 mg/kg (converted)): 162 min
- AUC(0-t) ([8]; plasma, CD-1 mice, oral 200 mg/kg, mean (SD), read-out: AUC[0-24]_200 mg/kg): 33400 ng·h/mL
- half-life ([8]; plasma, CD-1 mice, oral 200 mg/kg, mean (SD), read-out: Elimination T1/2 _200 mg/kg (converted)): 102 min
- AUC(0-t) ([8]; plasma, CD-1 mice, oral 400 mg/kg, mean (SD), read-out: AUC[0-24]_400 mg/kg): 80700 ng·h/mL
- half-life ([8]; plasma, CD-1 mice, oral 400 mg/kg, mean (SD), read-out: Elimination T1/2 _400 mg/kg (converted)): 216 min
- time above MIC of M. abscessus K21 planktonic cultures [8, 9]: 67%
- time above MIC of M. abscessus biofilms [8, 9]: greater than 70%
- frequency of resistance (M. abscessus Bamboo): 1.8 × 10^−8 /CFU
